Here are results for seven compounds from patent US20050158391A1, “Azithromycin multiparticulate dosage forms by melt-congeal processes” (Pfizer Inc, priority 2003, published 2005).

Like-named read-outs stand apart in the source and are kept apart here.

Data set [1] can be described thus: Solubility of azithromycin dihydrate in molten excipient. The class given is physicochemical. As to conditions: 65° C. How it is done:
The solubility of azithromycin dihydrate in beeswax was measured using the following procedure. A 5 g sample of beeswax was placed in a glass vial and melted at 65° C. by placing the vial in a hot-water bath. Crystals of azithromycin dihydrate were then slowly added to the molten wax, with stirring. The crystals first added dissolved into the wax. […] Thus, the solubility of azithromycin dihydrate in beeswax was determined to be about 6 wt %.
Using the procedure outlined in Screening Example 29, the solubility of azithromycin dihydrate in the excipients listed in Table 8 was determined at the temperatures listed therein. In addition, the solubility of azithromycin dihydrate was determined for mixtures of carriers in the weight ratios reported in Table 8.

Data set [2] in a line: Degree of acid/ester substitution [A] from Saponification Number. It is filed as physicochemical. To be noted: for [A] degree of acid/ester substitution: Saponification Number (Pharmaceutical Excipients 2000) divided by 56.11. From the text: However, in most cases, the excipient candidate is not available in pure form, and may constitute a mixture of several primary molecular types as well as small amounts of impurities or degradation products that could be acids or esters. In addition, many excipient candidates are natural products or are derived from natural products that may contain a wide range of compounds, making the above calculations extremely difficult, if not impossible. […] The Saponification Number is the number of milligrams of potassium hydroxide required to neutralize or hydrolyze any acid or ester substituents present in 1 gram of the material. Measurement of the Saponification Number is a standard way to characterize many commercially available pharmaceutical excipients and the manufacturer often provides an excipient's Saponification Number. The Saponification Number will not only account for acid and ester substituents present on the excipient itself, but also for any such substituents present due to impurities or degradation products in the excipient. Thus, the Saponification Number will often provide a more accurate measure of the degree of acid/ester substitution in the excipient.
The degree of acid and ester substitution on a excipient can be calculated from the Saponification Number as follows. Dividing the Saponification Number by the molecular weight of potassium hydroxide, 56.11 g/mol, results in the number of millimoles of potassium hydroxide required to neutralize or hydrolyze any acid or ester substituents present in one gram of the excipient. Since one mole of potassium hydroxide will neutralize one equivalent of acid or ester substituents, dividing the Saponification Number by the molecular weight of potassium hydroxide also results in the number of meq of acid or ester substituents present in one gram of excipient.
For example, glyceryl monostearate can be obtained with a Saponification Number of 165, as specified by the manufacturer. Thus, the degree of acid/ester substitution per gram of glyceryl monostearate or its acid/ester concentration is 165÷56.11=2.9 meq/g excipient. Using the above example of a composition with 30 wt % azithromycin and 70 wt % glyceryl monostearate, the theoretical concentration of esters formed per gram of azithromycin if all of the azithromycin reacted would be 2.9 meq/g×70/30=6.8 meq/g.
This example illustrates how the degree of acid/ester substitution can be determined from the Saponification Number for an excipient. The degree of acid/ester substitution [A] for the excipients listed in Table 5 was determined by dividing by 56.11 the Saponification Number for the carrier as listed in Pharmaceutical Excipients 2000.
This example illustrates how the degree of acid/ester substitution can be determined from the Saponification Number for an excipient. The degree of acid/ester substitution for the excipients listed in Table 6 were determined by dividing by 56.11 the Saponification Number provided by the manufacturer.

For data set [3] the following is noted: cited from earlier work.
Setting [4] is: as listed in Pharmaceutical Excipients 2000.

In the case of `CC[C@H]1OC(=O)[C@H](C)[C@@H](O[C@H]2C[C@@](C)(OC)[C@@H](O)[C@H](C)O2)[C@H](C)[C@@H](O[C@@H]2O[C@H](C)C[C@H](N(C)C)[C@H]2O)[C@](C)(O)C[C@@H](C)CN(C)[C@H](C)[C@@H](O)[C@]1(C)O` [azithromycin dihydrate, 9a-aza-9a-methyl-9-deoxo-9a-homoerythromycin A], in data set [1], the “solubility of azithromycin dihydrate in beeswax” value was “about 6 wt %”.

Consider `CCCCCCCCCCCCCCCCO` [cetyl alcohol], for which the “[A] degree of acid/ester substitution” value in data set [2] is on record as under 0.04 meq/g carrier. For the same compound, the “Saponification Number” value in data set [3] (setting [4]) is under 2.

With `CCCCCCCC/C=C\CCCCCCCC(=O)OCC(O)CO` (stereo not drawn) [glyceryl monooleate], the “[A] degree of acid/ester substitution” value in data set [2] is reported as 2.9-3.0 meq/g carrier. In data set [3] (setting [4]), the “Saponification Number” value is given as 160-170.

Turning to `CCCCCCCCCCCCCCCCCC(=O)OCC(O)CO` (stereo not drawn) [glyceryl monostearate], the “degree of acid/ester substitution (acid/ester concentration)” value in data set [2] (165÷56.11) came to 2.9 meq/g excipient. Moreover, the “[A] degree of acid/ester substitution” value in data set [2] is recorded as 2.8-2.9 meq/g carrier. Besides, the “Saponification Number” value is reported as 155-165 in data set [3] (setting [4]) and 165 in data set [3] (as specified by the manufacturer (description example)).

In the case of `CCCCCCCCCCCCCCCCCC(=O)O` [stearic acid, octadecanoic acid], the “[A] degree of acid/ester substitution” value in data set [2] was 3.6-3.9 meq/g carrier. Besides, in data set [3] (setting [4]), the “Saponification Number” value was 200-220.

With `CCCCCCCCCCCCCCCCCCO` [stearyl alcohol, 1-octadecanol], in data set [2], the “[A] degree of acid/ester substitution” value is given as under 0.04 meq/g carrier. In addition, the “Saponification Number” value in data set [3] (setting [4]) is on record as under 2.

sorbitan monostearate: in data set [2], the “[A] degree of acid/ester substitution” value was 2.6-2.8 meq/g carrier. Besides, in data set [3] (setting [4]), the “Saponification Number” value is on record as 147-157.
